How the values were obtained:
Assay type in all cases: in vivo
[1] = tested on: barnyard grass (Echinochloa crusgalli); test: Weed control test for paddy field (Test Example 1): barnyard grass; conditions: paddy pots, treated at 1.0 leaf stage of barnyard grass, examined after 3 weeks
Description: (§1) Paddy field soil was filled in 1/10,000 are pots, kneaded with adequate amounts of water and chemical fertilizer, seeded with barnyard grass (Echinochloa crusgalli), Monochoria (Monochoria vaginalis), Japanese bulrush (Scirpus juncoides) and flat sedge (Cyperus serotinus), and further transplanted with 2.0 leaf stage of rice plant. The pots were maintained under the water-filled condition to a depth of 3 cm.
(§2) Wettable powders containing the compounds (1) as identified in Table 1, which were formulated following Production Example 2, were diluted with adequate amount of water and applied to the pots dropwise with pippet at a prescribed dose of the active ingredients per are, at 1.0 leaf stage of the barnyard grass.
(§3) After placing the pots in a glasshouse which was controlled at an average temperature of 25° C. for 3 weeks, herbicidal effect was examined.
(§4) Evaluation of the herbicidal effect is shown in the following six grades, by comparing the condition of untreated control and growth inhibition (%): • 0: 0%-less than 20% • 1: 20%-less than 40% • 2: 40%-less than 60% • 3: 60%-less than 80% • 4: 80%-less than 100% • 5: 100%.

[2] = tested on: Monochoria (Monochoria vaginalis); test: Weed control test for paddy field (Test Example 1): Monochoria; conditions: paddy pots, treated at 1.0 leaf stage of barnyard grass, examined after 3 weeks
Description: as §1, §2, §3, §4

[3] = tested on: Japanese bulrush (Scirpus juncoides); test: Weed control test for paddy field (Test Example 1): Japanese bulrush; conditions: paddy pots, treated at 1.0 leaf stage of barnyard grass, examined after 3 weeks
Description: as §1, §2, §3, §4

[4] = tested on: flat sedge (Cyperus serotinus); test: Weed control test for paddy field (Test Example 1): flat sedge; conditions: paddy pots, treated at 1.0 leaf stage of barnyard grass, examined after 3 weeks
Description: as §1, §2, §3, §4

rice plant = test: Weed control test for paddy field (Test Example 1): phytotoxicity to rice plant; conditions: paddy pots, treated at 1.0 leaf stage of barnyard grass, examined after 3 weeks
Description: as §1, §2, §3
(§5) Evaluation of phytotoxicity is shown in the following six grades, as compared with the condition of untreated control: • 0: normal growth • 1: little damaged • 2: low damaged • 3: medium damaged • 4: serious damaged • 5: complete killed.

[5] = tested on: southern crabgrass (Digitaria ciliaris); test: Soil treatment test for upland field (Test Example 2): southern crabgrass; conditions: soil treatment before germination, examined after 3 weeks
Description: as §4
(§6) Upland field soil was filled in 1/3,000 are pots, seeded with southern crabgrass (Digitaria ciliaris), common lambsquaters (Chenopodium album), slender amaranth (Amaranthus viridis), common purslane (Portulaca oleracea), velvetleaf (Abutilon theophrasti), wheat, corn and soybean. The seeds were covered up with the soil.
(§7) Wettable powders containing the object compounds (1) as identified in Table 1, which were formulated following Preparation Example 2, were diluted with adequate amount of water to secure the prescribed dose of the active ingredient, and uniformly sprayed onto the surface soil layer after the seeding and before germination of the weeds, at an application water of 15 liters per are.
(§8) After placing the test pots in a glasshouse which was kept at an average temperature of 25° C. for 3 weeks, the herbicidal effect was examined.
(§9) Evaluations of the herbicidal effect and phytotoxicity were made in the manner similar to those in the above Test Example 1.

[6] = tested on: common lambsquaters (Chenopodium album); test: Soil treatment test for upland field (Test Example 2): common lambsquaters; conditions: soil treatment before germination, examined after 3 weeks
Description: as §4, §6, §7, §8, §9

[7] = tested on: slender amaranth (Amaranthus viridis); test: Soil treatment test for upland field (Test Example 2): slender amaranth; conditions: soil treatment before germination, examined after 3 weeks
Description: as §4, §6, §7, §8, §9

[8] = tested on: common purslane (Portulaca oleracea); test: Soil treatment test for upland field (Test Example 2): common purslane; conditions: soil treatment before germination, examined after 3 weeks
Description: as §4, §6, §7, §8, §9

[9] = tested on: velvetleaf (Abutilon theophrasti); test: Soil treatment test for upland field (Test Example 2): velvetleaf; conditions: soil treatment before germination, examined after 3 weeks
Description: as §4, §6, §7, §8, §9

wheat [10] = test: Soil treatment test for upland field (Test Example 2): phytotoxicity to wheat; conditions: soil treatment before germination, examined after 3 weeks
Description: as §5, §6, §8

corn [11] = test: Soil treatment test for upland field (Test Example 2): phytotoxicity to corn; conditions: soil treatment before germination, examined after 3 weeks
Description: as §5, §6, §8

soybean [12] = test: Soil treatment test for upland field (Test Example 2): phytotoxicity to soybean; conditions: soil treatment before germination, examined after 3 weeks
Description: as §5, §6, §8

southern crabgrass = test: Foliage treatment test for upland field (Test Example 3): southern crabgrass; conditions: foliage treatment at 1.0-2.0 leaf stage of southern crabgrass, examined after 3 weeks
Description: as §4
(§10) Compost mixed soil was filled in 1/3,000 are pots, seeded with southern crabgrass, common lambsquaters, slender amaranth, common purslane, velvetleaf, wheat, corn and soybean. The seeds were covered up with the soil and cultured in a glasshouse kept at 25° C. on the average.
(§11) Wettable powders containing the object compounds (1) as identified in Table 1, which were formulated following Preparation Example 2, were diluted with water to the prescribed dose of the active ingredient, and uniformly sprayed onto the weeds at 1.0-2.0 leaf stage of the southern crabgrass at an application water of 15 liters per are.
(§12) After placing the test pots in a grasshouse kept at 25° C. on the average for 3 weeks, the herbicidal effect was examined.
(§13) Evaluation of the herbicidal effect was conducted in the similar manner to Test Example 1.

common lambsquaters = test: Foliage treatment test for upland field (Test Example 3): common lambsquaters; conditions: foliage treatment at 1.0-2.0 leaf stage of southern crabgrass, examined after 3 weeks
Description: as §4, §10, §11, §12, §13

slender amaranth = test: Foliage treatment test for upland field (Test Example 3): slender amaranth; conditions: foliage treatment at 1.0-2.0 leaf stage of southern crabgrass, examined after 3 weeks
Description: as §4, §10, §11, §12, §13

common purslane = test: Foliage treatment test for upland field (Test Example 3): common purslane; conditions: foliage treatment at 1.0-2.0 leaf stage of southern crabgrass, examined after 3 weeks
Description: as §4, §10, §11, §12, §13

velvetleaf = test: Foliage treatment test for upland field (Test Example 3): velvetleaf; conditions: foliage treatment at 1.0-2.0 leaf stage of southern crabgrass, examined after 3 weeks
Description: as §4, §10, §11, §12, §13

wheat [13] = test: Foliage treatment test for upland field (Test Example 3): phytotoxicity to wheat; conditions: foliage treatment at 1.0-2.0 leaf stage of southern crabgrass, examined after 3 weeks
Experimental: as §5, §10, §12

corn [14] = test: Foliage treatment test for upland field (Test Example 3): phytotoxicity to corn; conditions: foliage treatment at 1.0-2.0 leaf stage of southern crabgrass, examined after 3 weeks
Experimental: as §5, §10, §12

soybean [15] = test: Foliage treatment test for upland field (Test Example 3): phytotoxicity to soybean; conditions: foliage treatment at 1.0-2.0 leaf stage of southern crabgrass, examined after 3 weeks
Experimental: as §5, §10, §12

Question: With `COCC(=Cc1ccc(Cl)c(C(F)(F)F)c1)c1nc2cc(Cl)ccc2o1` [Compound 9] as the molecule, how does the “Herbicidal Effect Barnyard grass” value ([1]; dose 2.5 g ai/a) read?
Answer: 4 (80%-less than 100%)

Question: What about the “Herbicidal Effect Barnyard grass” value ([1]; dose 5 g ai/a) of the same molecule?
Answer: 5 (100%)

Question: What about the “Herbicidal Effect Monochoria vaginalis” value ([2]; dose 2.5 g ai/a) of the same molecule?
Answer: 5 (100%)

Question: What about the “Herbicidal Effect Monochoria vaginalis” value ([2]; dose 5 g ai/a) of the same molecule?
Answer: 5 (100%)

Question: And the “Herbicidal Effect Japanese bulrush” value ([3]; dose 2.5 g ai/a)?
Answer: 3 (60%-less than 80%)

Question: And the “Herbicidal Effect Japanese bulrush” value ([3]; dose 5 g ai/a)?
Answer: 4 (80%-less than 100%)

Question: What about the “Herbicidal Effect Flat sedge” value ([4]; dose 2.5 g ai/a) of the same molecule?
Answer: 2 (40%-less than 60%)

Question: What about the “Herbicidal Effect Flat sedge” value ([4]; dose 5 g ai/a) of the same molecule?
Answer: 3 (60%-less than 80%)

Question: What about the “Phytotoxicity Rice plant” value (rice plant; dose 2.5 g ai/a) of the same molecule?
Answer: 0

Question: And the “Phytotoxicity Rice plant” value (rice plant; dose 5 g ai/a)?
Answer: 0

Question: What about the “Herbicidal Effect southern crabgrass” value ([5]; dose 2.5 g ai/a) of the same molecule?
Answer: 5 (100%)

Question: And the “Herbicidal Effect southern crabgrass” value ([5]; dose 5 g ai/a)?
Answer: 5 (100%)

Question: And the “Herbicidal Effect common lambsquaters” value ([6]; dose 2.5 g ai/a)?
Answer: 5 (100%)

Question: And the “Herbicidal Effect common lambsquaters” value ([6]; dose 5 g ai/a)?
Answer: 5 (100%)

Question: What about the “Herbicidal Effect slender amaranth” value ([7]; dose 2.5 g ai/a) of the same molecule?
Answer: 5 (100%)

Question: What about the “Herbicidal Effect slender amaranth” value ([7]; dose 5 g ai/a) of the same molecule?
Answer: 5 (100%)

Question: What about the “Herbicidal Effect common purslane” value ([8]; dose 2.5 g ai/a) of the same molecule?
Answer: 5 (100%)

Question: And the “Herbicidal Effect common purslane” value ([8]; dose 5 g ai/a)?
Answer: 5 (100%)

Question: And the “Herbicidal Effect velvetleaf” value ([9]; dose 2.5 g ai/a)?
Answer: 4 (80%-less than 100%)

Question: What about the “Herbicidal Effect velvetleaf” value ([9]; dose 5 g ai/a) of the same molecule?
Answer: 5 (100%)

Question: And the Phytotoxicity wheat (wheat [10]; dose 2.5 g ai/a)?
Answer: 0

Question: What about the Phytotoxicity wheat (wheat [10]; dose 5 g ai/a) of the same molecule?
Answer: 1

Question: What about the Phytotoxicity corn (corn [11]; dose 2.5 g ai/a) of the same molecule?
Answer: 1

Question: And the Phytotoxicity corn (corn [11]; dose 5 g ai/a)?
Answer: 1

Question: And the Phytotoxicity soybean (soybean [12]; dose 2.5 g ai/a)?
Answer: 0

Question: And the Phytotoxicity soybean (soybean [12]; dose 5 g ai/a)?
Answer: 0

Question: What about the “Herbicidal Effect southern crabgrass” value (southern crabgrass; dose 2.5 g ai/a) of the same molecule?
Answer: 5 (100%)

Question: What about the “Herbicidal Effect southern crabgrass” value (southern crabgrass; dose 5 g ai/a) of the same molecule?
Answer: 5 (100%)

Question: What about the “Herbicidal Effect Common lambsquatters” value (common lambsquaters; dose 2.5 g ai/a) of the same molecule?
Answer: 5 (100%)

Question: What about the “Herbicidal Effect Common lambsquatters” value (common lambsquaters; dose 5 g ai/a) of the same molecule?
Answer: 5 (100%)

Question: What about the “Herbicidal Effect slender amaranth” value (slender amaranth; dose 2.5 g ai/a) of the same molecule?
Answer: 5 (100%)

Question: And the “Herbicidal Effect slender amaranth” value (slender amaranth; dose 5 g ai/a)?
Answer: 5 (100%)

Question: And the “Herbicidal Effect common purslane” value (common purslane; dose 2.5 g ai/a)?
Answer: 5 (100%)

Question: And the “Herbicidal Effect common purslane” value (common purslane; dose 5 g ai/a)?
Answer: 5 (100%)

Question: What about the “Herbicidal Effect velvetleaf” value (velvetleaf; dose 2.5 g ai/a) of the same molecule?
Answer: 4 (80%-less than 100%)

Question: What about the “Herbicidal Effect velvetleaf” value (velvetleaf; dose 5 g ai/a) of the same molecule?
Answer: 5 (100%)

Question: What about the Phytotoxicity wheat (wheat [13]; dose 2.5 g ai/a) of the same molecule?
Answer: 1

Question: And the Phytotoxicity wheat (wheat [13]; dose 5 g ai/a)?
Answer: 1

Question: What about the Phytotoxicity corn (corn [14]; dose 2.5 g ai/a) of the same molecule?
Answer: 1

Question: What about the Phytotoxicity corn (corn [14]; dose 5 g ai/a) of the same molecule?
Answer: 1

Question: What about the Phytotoxicity soybean (soybean [15]; dose 2.5 g ai/a) of the same molecule?
Answer: 0

Question: What about the Phytotoxicity soybean (soybean [15]; dose 5 g ai/a) of the same molecule?
Answer: 1
